Experimental data as given in patent US20230085307A1, “PYRIDAZINONE COMPOUND AND HERBICIDE” (NISSAN CHEMICAL CORPORATION, priority 2019, published 2023).

Legend:
late watergrass = experiment: Test Example 1: herbicidal activity, application before weed generation under submerged conditions (Table 16, symbol A); assay type: in vivo, late watergrass (Echinochloa oryzicola); conditions: 320 g/ha applied herbicide
Outline: (§1)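 Alluvial soil was flooded to 4 cm depth, weed seeds were sown mixed and 2.5-leaf rice seedlings were transplanted. On sowing day, the compound's emulsion, diluted in water to a set dose, was applied to the water surface. Plants grew at 25–30 °C and were scored 0–5 after three weeks.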

Japanese bulrush [1] = experiment: Test Example 1: herbicidal activity, application before weed generation under submerged conditions (Table 16, symbol B); assay type: in vivo, Japanese bulrush (Schoenoplectus juncoides); conditions: 320 g/ha applied herbicide
Outline: as §1

Japanese bulrush [2] = experiment: Test Example 2: herbicidal activity, application during weed generation under submerged conditions (Table 17, symbol B); assay type: in vivo, Japanese bulrush (Schoenoplectus juncoides); conditions: AAH 320 g/ha; application during weed generation, submerged conditions
Outline: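 Herbicide emulsion, diluted with water to the chosen amount, is applied onto 4 cm floodwater over alluvial soil where the weeds were co-sown and raised at 25–30° C. Application timing: 1–2 leaves. Assessment: three weeks afterwards.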

barnyard grass [3] = experiment: Test Example 3: herbicidal effect by foliage application, Wagner pot (Table 18, symbol H); assay type: in vivo, barnyard grass (Echinochloa crus-galli); conditions: 320 g/ha
Outline: (§2)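 Plants were sown in alluvial soil held under 0.1–0.5 cm standing water and grown 14 days in a greenhouse at 25–30 °C. An emulsifiable formulation, water-diluted to the set dose, was then sprayed onto the foliage, and effects were scored three weeks later using previously defined criteria.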

Chinese sprangletop = experiment: Test Example 3: herbicidal effect by foliage application, Wagner pot (Table 18, symbol D); assay type: in vivo, chinese sprangletop (Leptochloa chinensis); conditions: 320 g/ha
Outline: as §2

southern crabgrass [4] = experiment: Test Example 4: herbicidal effect by soil treatment (Table 19, symbol F); assay type: in vivo, southern crabgrass (Digitaria ciliaris)
Outline: (§3)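 Three weeks of greenhouse growth at 25° C. to 30° C. followed a uniform surface spray of water-diluted emulsion at a predetermined herbicide amount. Seeds had been sown beforehand under about 1.5 cm of sterilized diluvial soil. Grading followed criteria set out in an earlier test.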

barnyard grass [5] = experiment: Test Example 4: herbicidal effect by soil treatment (Table 19, symbol H); assay type: in vivo, barnyard grass (Echinochloa crus-galli)
Outline: as §3

windgrass [6] = experiment: Test Example 4: herbicidal effect by soil treatment (Table 19, symbol L); assay type: in vivo, windgrass (Apera spica-venti)
Outline: as §3

velvetleaf [7] = experiment: Test Example 4: herbicidal effect by soil treatment (Table 19, symbol M); assay type: in vivo, velvetleaf (Abutilon theophrasti)
Outline: as §3

lambsquarters [8] = experiment: Test Example 4: herbicidal effect by soil treatment (Table 19, symbol O); assay type: in vivo, lambsquarters (Chenopodium album)
Outline: as §3

southern crabgrass [9] = experiment: Test Example 5: herbicidal effect by foliage application, plastic box (Table 20, symbol F); assay type: in vivo, southern crabgrass (Digitaria ciliaris); conditions: foliage application, 320 g/ha, evaluated three weeks after application
Outline: (§4)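 Plants sown in sterilized diluvial soil and grown 14 days in a greenhouse at 25° C to 30° C, then sprayed on the foliage with the compound's emulsion diluted in water to a predetermined herbicide amount. Injury to weeds and crops scored three weeks after application on a visual rating scale.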

wild oat = experiment: Test Example 5: herbicidal effect by foliage application, plastic box (Table 20, symbol I); assay type: in vivo, wild oat (Avena fatua); conditions: foliage application, 320 g/ha, evaluated three weeks after application
Outline: as §4

Italian ryegrass = experiment: Test Example 5: herbicidal effect by foliage application, plastic box (Table 20, symbol K); assay type: in vivo, Italian ryegrass (Lolium multiflorum); conditions: foliage application, 320 g/ha, evaluated three weeks after application
Outline: as §4

windgrass [10] = experiment: Test Example 5: herbicidal effect by foliage application, plastic box (Table 20, symbol L); assay type: in vivo, windgrass (Apera spica-venti); conditions: foliage application, 320 g/ha, evaluated three weeks after application
Outline: as §4

velvetleaf [11] = experiment: Test Example 5: herbicidal effect by foliage application, plastic box (Table 20, symbol M); assay type: in vivo, velvetleaf (Abutilon theophrasti); conditions: foliage application, 320 g/ha, evaluated three weeks after application
Outline: as §4

lambsquarters [12] = experiment: Test Example 5: herbicidal effect by foliage application, plastic box (Table 20, symbol O); assay type: in vivo, lambsquarters (Chenopodium album); conditions: foliage application, 320 g/ha, evaluated three weeks after application
Outline: as §4

persian speedwell = experiment: Test Example 5: herbicidal effect by foliage application, plastic box (Table 20, symbol R); assay type: in vivo, Persian speedwell (Veronica persica); conditions: foliage application, 320 g/ha, evaluated three weeks after application
Outline: as §4

[13] = amount of applied herbicide 320 g/ha

With `CCCC(=O)Oc1c(C)nn(C)c(=O)c1-c1c(-c2ccc3c(c2)OCO3)sc2ccc(F)cc12` [2-091] the “Herbicidal effect on A: late watergrass (grade 0-5)” value (late watergrass) was 3 (Herbicidal rate of 40% or more and less than 70%), the “Herbicidal effect on B: Japanese bulrush (grade 0-5)” value (Japanese bulrush [1]) was 4 (Herbicidal rate of 70% or more and less than 90%) and the “herbicidal effect rating, B: Japanese bulrush” value (Japanese bulrush [2]) was 3 (Herbicidal rate of 40% or more and less than 70%). For the same molecule, the “herbicidal effect on H (barnyard grass), rating 0-5” value (barnyard grass [3]) was 3 (Herbicidal rate of 40% or more and less than 70%), the “herbicidal effect on D (Chinese sprangletop), rating 0-5” value (Chinese sprangletop) was 3 (Herbicidal rate of 40% or more and less than 70%) and the “herbicidal effect rating, F: southern crabgrass” value (southern crabgrass [4]; 320 g/ha) was 2 (Herbicidal rate of 20% or more and less than 40%). The “herbicidal effect rating, H: barnyard grass” value (barnyard grass [5]; 320 g/ha) was 2 (Herbicidal rate of 20% or more and less than 40%), the “herbicidal effect rating, L: windgrass” value (windgrass [6]; 320 g/ha) was 0 (Herbicidal rate of 5% or less (almost no effect)) and the “herbicidal effect rating, M: velvetleaf” value (velvetleaf [7]; 320 g/ha) was 5 (Herbicidal rate of 90% or more (almost completely withered)). The “herbicidal effect rating, O: lambsquarters” value (lambsquarters [8]; 320 g/ha) was 5 (Herbicidal rate of 90% or more (almost completely withered)), the “herbicidal effect on F: southern crabgrass” value (southern crabgrass [9]) was 2 (Herbicidal rate of 20% or more and less than 40%) and the “herbicidal effect on I: wild oat” value (wild oat) was 0 (Herbicidal rate of 5% or less (almost no effect)). For the same molecule, the “herbicidal effect on K: Italian ryegrass” value (Italian ryegrass) was 4 (Herbicidal rate of 70% or more and less than 90%), the “herbicidal effect on L: windgrass” value (windgrass [10]) was 0 (Herbicidal rate of 5% or less (almost no effect)) and the “herbicidal effect on M: velvetleaf” value (velvetleaf [11]) was 5 (Herbicidal rate of 90% or more (almost completely withered)). For the same molecule, the “herbicidal effect on O: lambsquarters” value (lambsquarters [12]) was 5 (Herbicidal rate of 90% or more (almost completely withered)) and the “herbicidal effect on R: persian speedwell” value (persian speedwell) was 5 (Herbicidal rate of 90% or more (almost completely withered)).

`CCCC(=O)Oc1c(C)nn(C)c(=O)c1-c1c(-c2ccc(Cl)cc2)sc2ccc(Cl)cc12` [2-100] was tested, and the “Herbicidal effect on A: late watergrass (grade 0-5)” value (late watergrass) was 3 (Herbicidal rate of 40% or more and less than 70%), the “Herbicidal effect on B: Japanese bulrush (grade 0-5)” value (Japanese bulrush [1]) was 3 (Herbicidal rate of 40% or more and less than 70%) and the “herbicidal effect rating, B: Japanese bulrush” value (Japanese bulrush [2]) was 0 (Herbicidal rate of 5% or less (almost no effect)). The “herbicidal effect on H (barnyard grass), rating 0-5” value (barnyard grass [3]) was 5 (Herbicidal rate of 90% or more (almost completely withered)), the “herbicidal effect on D (Chinese sprangletop), rating 0-5” value (Chinese sprangletop) was 4 (Herbicidal rate of 70% or more and less than 90%) and the “F: southern crabgrass, herbicidal effect rating” value (southern crabgrass [4]; [13]) was 0 (Herbicidal rate of 5% or less (almost no effect)). For the same molecule, the “H: barnyard grass, herbicidal effect rating” value (barnyard grass [5]; [13]) was 0 (Herbicidal rate of 5% or less (almost no effect)), the “L: windgrass, herbicidal effect rating” value (windgrass [6]; [13]) was 3 (Herbicidal rate of 40% or more and less than 70%) and the “M: velvetleaf, herbicidal effect rating” value (velvetleaf [7]; [13]) was 0 (Herbicidal rate of 5% or less (almost no effect)). The “O: lambsquarters, herbicidal effect rating” value (lambsquarters [8]; [13]) was 2 (Herbicidal rate of 20% or more and less than 40%), the “herbicidal effect on F: southern crabgrass” value (southern crabgrass [9]) was 4 (Herbicidal rate of 70% or more and less than 90%) and the “herbicidal effect on I: wild oat” value (wild oat) was 5 (Herbicidal rate of 90% or more (almost completely withered)). For the same molecule, the “herbicidal effect on K: Italian ryegrass” value (Italian ryegrass) was 5 (Herbicidal rate of 90% or more (almost completely withered)), the “herbicidal effect on L: windgrass” value (windgrass [10]) was 5 (Herbicidal rate of 90% or more (almost completely withered)) and the “herbicidal effect on M: velvetleaf” value (velvetleaf [11]) was 5 (Herbicidal rate of 90% or more (almost completely withered)). The “herbicidal effect on O: lambsquarters” value (lambsquarters [12]) was 4 (Herbicidal rate of 70% or more and less than 90%) and the “herbicidal effect on R: persian speedwell” value (persian speedwell) was 5 (Herbicidal rate of 90% or more (almost completely withered)).
